Test results taken from US5217990A, “Use of macrolactones as anti-allergics” (Boehringer Mannheim GmbH, priority 1989, dated 1993).
Like-named read-outs stand apart in the source and are kept apart here.

Key:
[1] = system: peripheral human leukocytes; assay: Inhibition of anti-IgE-induced histamine liberation from peripheral human leukocytes; type: cell-based
Text: (§1) For the detection of the anti-allergic action, there was used the inhibition of the proteinase liberation from peripheral human leukocytes induced by anti-IgE antibodies (Wilhelmset et al. XII Congress Europ. Acad. Allergology Clin. Immunology, Rome, Sep. 25--3), 1983, as well as DE-Al-34 46 714) or of the histamine liberation in an analogous process according to a further development of the method of R. P. Siraganian and W. A. Hook (Manual of Clinical Immunology, 2nd edition, 1980, pub. N. R. Rose and H. Friedman, Am. Soc. for Microbiology, pages 808 to 821).
(§2) Description of the Test System for the Testing for Mediator Liberation Inhibition from Human Leukocytes in Vitro
(§3) The liberation of proteinase on isolated human leukocytes is initiated by stimulation with anti-IgE antibodies (IgE-mediated mediator liberation from basophilic granulocytes). The intensity of this liberation reaction is determined by substrate addition (chromozyme TH) and photometric measurement in that the colour intensity of the samples±inhibitor addition are compared.
(§4) Buffy-coat cells=concentrated cell suspension from blood preserve.
(§5) In the following Table I are reproduced the inhibition values of the anti-IgE-induced liberation of histamine and proteinase from peripheral human leukocytes. As comparison substance, there was used the known degranulation inhibitor theophylline.

[2] = system: peripheral human leukocytes; assay: Inhibition of anti-IgE-induced proteinase liberation from peripheral human leukocytes; type: cell-based
Text: as §1, §2, §3, §4, §5

[3] = system: guinea pig lung parenchyma strips; assay: Inhibition of the antigen-caused constriction of passively sensitised guinea pig lung parenchyma strips in vitro (organ bath); set-up: key to R = relaxation: R: relaxation; conditions: for inhibition at 40 µg/mL / inhibition at 10 µg/mL: Cavia porcellus
Procedure: As further detection for the anti-allergic action, there was investigated the inhibition of the antigen-caused constriction of passive sensitised guinea pig lung parenchyma strips in vitro.
Inhibition of the Antigen-Caused Construction of Passively Sensitised Guinea Pig Lung Parenchyma Strips in Vitro (Organ Bath)
For the in vitro investigation of the compounds according to the invention, there was measured the inhibition of the antigen-caused constriction on passively sensitised guinea pig lung parenchyma strips, as described in the following.
Pirbright white guinea pigs were stunned by neck blow and exsanguinated. The lungs were rinsed in situ substantially free of blood with Krebs buffer, pH 7.4.
Subsequently, the lung was removed, cut up into strips (about 20×4×4 mm) and the strips passively sensitised for 1 hour at room temperature with a 1:50 dilution of a homologous anti-ovalbumin antiserum and then washed with Krebs buffer 1×.
The antiserum had been previously produced in guinea pigs of the same strain according to Davies G. E., T. P. Johnstone (Quantitative studies on anaphylaxis in guinea pigs passively sensitised with homologous antibody; Inter. Arch. 41, 648-654 (1971)) by repeated injection of ovalbumin (2×crystallised) with the addition of complete Freund's adjuvant.
Up to its use, the antiserum was stored undiluted at -18° C.
Subsequently, the lung strips were suspended individually in 10 ml. waterbaths with a prestressing of 1.2 g on an isometric measurement recorder.
Thereafter, the waterbaths were filled with Krebs buffer and continuously gassed at 37° C. with O2 (95%) and CO2 (5%).
The constructions of the lung strips were recorded on a disc via an amplifier.
After 30 minutes acclimatisation phase, histamine control spasms were produced for the recognition of the reaction ability of the organ pieces, washed, subsequently the test substance pre-incubated for 20 minutes at 37° C. and thereafter the ovalbumin-caused constriction initiated.
The inhibition actions of the compounds according to the invention were expressed as percentage reduction of the constriction amplitude of the "samples with test substance" in comparison with the "untreated control constrictions".

[4] = system: lettuce seeds (Lactuca sativa); conditions: cited from earlier work
plant growth = conditions: cited from earlier work
[5] = substance 10.00 mcg/ml, A = histamine 1.0 mcg/ml
[6] = substance 10.00 mcg/ml, B = ovalbumin 0.1 mcg/ml
[7] = substance 10.00 mcg/ml, C = glucose 1.16 %
[8] = substance 10.00 mcg/ml, D = ovalbumin 1.0 mcg/ml
[9] = substance 40.00 mcg/ml, A = histamine 1.0 mcg/ml
[10] = substance 40.00 mcg/ml, B = ovalbumin 0.1 mcg/ml
[11] = substance 40.00 mcg/ml, C = glucose 1.16 %
[12] = substance 40.00 mcg/ml, D = ovalbumin 1.0 mcg/ml
[13] = Homo sapiens, Leukocyte, conc. 2 μg/ml
[14] = Homo sapiens, Leukocyte, conc. 10 μg/ml
[15] = substance 40.00 mcg/ml, A = histamine 1.0 mcg/ml, read-out: Inhibition of constriction (percentage reduction of the constriction amplitude), spasmogen A
[16] = substance 40.00 mcg/ml, B = ovalbumin 0.1 mcg/ml, read-out: Inhibition of constriction (percentage reduction of the constriction amplitude), spasmogen B
[17] = substance 40.00 mcg/ml, C = glucose 1.16 %, read-out: Inhibition of constriction (percentage reduction of the constriction amplitude), spasmogen C
[18] = substance 40.00 mcg/ml, D = ovalbumin 1.0 mcg/ml, read-out: Inhibition of constriction (percentage reduction of the constriction amplitude), spasmogen D
[19] = substance 10.00 mcg/ml, A = histamine 1.0 mcg/ml, read-out: Inhibition of constriction (percentage reduction of the constriction amplitude), spasmogen A
[20] = substance 10.00 mcg/ml, B = ovalbumin 0.1 mcg/ml, read-out: Inhibition of constriction (percentage reduction of the constriction amplitude), spasmogen B
[21] = substance 10.00 mcg/ml, C = glucose 1.16 %, read-out: Inhibition of constriction (percentage reduction of the constriction amplitude), spasmogen C
[22] = substance 10.00 mcg/ml, D = ovalbumin 1.0 mcg/ml, read-out: Inhibition of constriction (percentage reduction of the constriction amplitude), spasmogen D
[23] = Homo sapiens, Leukocyte, conc. 90 μg/ml

C[C@@H]1CCCCC[C@H](O)[C@H](O)/C=C/C(=O)O1 [cladospolide A]
% inhibition histamine ([1]; conc. 2 μg/ml): 8%
% inhibition histamine ([1]; conc. 10 μg/ml): 44%
% inhibition proteinase ([2]; conc. 2 μg/ml): 5%
% inhibition proteinase ([2]; conc. 10 μg/ml): 46%
Inhibition of constriction (percentage reduction of the constriction amplitude), spasmogen A [3, 5]: -5%
Inhibition of constriction (percentage reduction of the constriction amplitude), spasmogen B [3, 6]: -50%
Inhibition of constriction (percentage reduction of the constriction amplitude), spasmogen C [3, 7]: -85%
Inhibition of constriction (percentage reduction of the constriction amplitude), spasmogen D [3, 8]: -76%
Inhibition of constriction (percentage reduction of the constriction amplitude), spasmogen A [3, 9]: 16%
Inhibition of constriction (percentage reduction of the constriction amplitude), spasmogen B [3, 10]: 34%
Inhibition of constriction (percentage reduction of the constriction amplitude), spasmogen C [3, 11]: 33%
Inhibition of constriction (percentage reduction of the constriction amplitude), spasmogen D [3, 12]: 24%
action on the root growth of lettuce seeds [4]: weakly inhibitingly

C[C@H]1CCCCC[C@H](O)[C@@H](O)/C=C\C(=O)O1 [cladospolide B]
action on the root growth of lettuce seeds [4]: promotingly

CC(=O)OC1C=CC(=O)OC(C)CCCCCC1OC(C)=O (stereo not drawn) [diacetylcladospolide A, Diacetylcladospolide A]
inhibition at 2 µg/mL [1, 13]: 17%
inhibition at 10 µg/mL [1, 14]: 92%
inhibition at 2 µg/mL [2, 13]: 14%
inhibition at 10 µg/mL [2, 14]: 96%
inhibition at 40 µg/mL [3, 15]: 6%
inhibition at 40 µg/mL [3, 16]: 44%
inhibition at 40 µg/mL [3, 17]: 45%
inhibition at 40 µg/mL [3, 18]: 46%

CC1CCCCCCC(=O)/C=C/C(=O)O1 (stereo not drawn) [patulolide A]
inhibition at 2 µg/mL [1, 13]: 44%
inhibition at 10 µg/mL [1, 14]: 100%
inhibition at 2 µg/mL [2, 13]: 46%
inhibition at 10 µg/mL [2, 14]: 99%
inhibition at 10 µg/mL [3, 19]: 23%
inhibition at 10 µg/mL [3, 20]: 35%
inhibition at 10 µg/mL [3, 21]: 35%
inhibition at 10 µg/mL [3, 22]: 35%
inhibition at 40 µg/mL [3, 15]: 21%
inhibition at 40 µg/mL [3, 16]: 51%
inhibition at 40 µg/mL [3, 17]: 53%
inhibition at 40 µg/mL [3, 18]: 30%
plant growth inhibition (plant growth): plant growth inhibiting

CC1CCCCCCC(=O)/C=C\C(=O)O1 (stereo not drawn) [patulolide B]
inhibition at 2 µg/mL [1, 13]: 57%
inhibition at 10 µg/mL [1, 14]: 100%
inhibition at 2 µg/mL [2, 13]: 63%
inhibition at 10 µg/mL [2, 14]: 99%
inhibition at 10 µg/mL [3, 19]: 5%
inhibition at 10 µg/mL [3, 20]: 54%
inhibition at 10 µg/mL [3, 21]: 47%
inhibition at 10 µg/mL [3, 22]: 51%
inhibition at 40 µg/mL [3, 15]: 3%
inhibition at 40 µg/mL [3, 16]: 95%
inhibition at 40 µg/mL [3, 17]: 93%
inhibition at 40 µg/mL [3, 18]: 93%
plant growth inhibition (plant growth): plant growth inhibiting

C[C@@H]1CCCCCC[C@H](O)/C=C\C(=O)O1 [patulolide C]
Inhibition of constriction (percentage reduction of the constriction amplitude), spasmogen A [3, 5]: -38%
Inhibition of constriction (percentage reduction of the constriction amplitude), spasmogen B [3, 6]: -35%
Inhibition of constriction (percentage reduction of the constriction amplitude), spasmogen C [3, 7]: -98%
Inhibition of constriction (percentage reduction of the constriction amplitude), spasmogen D [3, 8]: -26%
R = relaxation ([3]; substance 40.00 mcg/ml): R
Inhibition of constriction (percentage reduction of the constriction amplitude), spasmogen A [3, 9]: -24%
Inhibition of constriction (percentage reduction of the constriction amplitude), spasmogen B [3, 10]: -40%
Inhibition of constriction (percentage reduction of the constriction amplitude), spasmogen C [3, 11]: -36%
Inhibition of constriction (percentage reduction of the constriction amplitude), spasmogen D [3, 12]: -33%
plant growth inhibition (plant growth): plant growth inhibiting

Cn1c(=O)c2[nH]cnc2n(C)c1=O [theophylline, reference compound]
inhibition at 90 µg/mL [1, 23]: 72%
inhibition at 90 µg/mL [2, 23]: 70%
